Experimental data: patent publication US20250223303A1, “TRICYCLIC BORONIC ACID DERIVATIVE, AND PREPARATION METHOD THEREFOR AND APPLICATION THEREOF” (priority 2021, published 2025)

Experiments:
[1] = system: Acinetobacter baumannii ARLG-1853 OXA-23; test: MIC test of compounds in combination with antibiotics, Acinetobacter baumannii ARLG-1853; conditions: Acinetobacter baumannii, ARLG1853OXA23
Procedure: (§15) 2-Fold gradient dilution of antibiotics: 300 μL of CAMHVIB medium was added to columns 2-12 of a 96-deep well plate. In column 1, 24 μL of antibiotic stock solution and 576 µL of CAMHB medium were added and mixed well, with a concentration of 512 μg/mL. 300 µL of antibiotic solution was transferred from the column 1 to the second column and mixed well. The process was repeated until column 11, and the column 12 was a blank control.
(§16) Dilution of combined compounds: the compound was diluted 400-fold to 32 μg/ml with CAMHB medium.
(§17) Working solution aliquoting: 25 μL of antibiotics was aliquoted into the 96-U bottom plate with a pipette, and 25 μL of combined compound was added to each well. If antibiotics were used alone, 25 μL of CAMHB medium was added.
(§18) Inoculum solution preparation: 5-6 single colonies were selected from the plate and suspended in normal saline. The bacterial suspension was adjusted to 0.2 (i.e., 0.5 McFarland turbidity, with a bacterial concentration was about 1 to 2×10^8 CFU/mL) with a turbidity meter. The bacterial suspension was diluted 100-fold with CAMHB medium for later use.
(§19) Inoculation: 50 μL of inoculum solution was transferred to the above 50 μL compound plate with a pipette.
(§20) Culture: The 96-U bottom plate was placed in an incubator at 37° C. for 18 to 20 h.

[2] = system: Acinetobacter baumannii WX-AB005; test: MIC test of compounds in combination with antibiotics, Acinetobacter baumannii WX-AB005; conditions: Acinetobacter baumannii, WXAB005
Procedure: as §15, §16, §17, §18, §19, §20

[3] = system: Klebsiella pneumoniae ATCC BAA-2470; test: MIC test of compounds in combination with antibiotics, Klebsiella pneumoniae ATCC BAA-2470; conditions: Klebsiella pneumoniae, ATCCBAA2470
Procedure: (§21) Strain preparation: the strains to be tested were streaked from glycerol tube at −80° C. onto Mueller Hinton II Agar plates. The plates were then placed in a 37° C. incubator and cultured for 18-24 hours.
(§22) Media preparation: CAMHB (Mueller Hinton II Broth): 22 g of powder was dissolved in 1 L of purified water and sterilized at 121° C. for 10 min for use. Saline: 8.5 g NaCl was dissolved in 1 L of pure water and sterilized at 121° C. for 30 min for use.
(§23) Preparation of compound and antibiotic stock solutions: the compound and antibiotic were dissolved in DMSO or water to 12.8 mg/mL.
as §15, §16, §17, §18, §19, §20
(§24) After the incubation, bacterial growth was visually observed, and the test plate was photographed and recorded.

[4] = system: Acinetobacter baumannii ARLG-1852 OXA-23; test: MIC test of compounds in combination with antibiotics, Acinetobacter baumannii ARLG-1852; conditions: Acinetobacter baumannii, ARLG1852OXA23
Procedure: as §15, §16, §17, §18, §19, §20

[5] = system: Acinetobacter baumannii ARLG-1809 OXA-23; test: MIC test of compounds in combination with antibiotics, Acinetobacter baumannii ARLG-1809; conditions: Acinetobacter baumannii, ARLG1809OXA23
Procedure: as §15, §16, §17, §18, §19, §20

[6] = system: Escherichia coli ARLG 2829; test: MIC test of compounds in combination with antibiotics, Escherichia coli ARLG 2829; conditions: Escherichia coli, ARLG2829
Procedure: as §21, §22, §23, §15, §16, §17, §18, §19, §20, §24

[7] = system: Klebsiella pneumoniae ATCC BAA-1705; test: MIC test of compounds in combination with antibiotics, Klebsiella pneumoniae ATCC BAA-1705; conditions: Klebsiella pneumoniae, ATCCBAA1705
Procedure: as §21, §22, §23, §15, §16, §17, §18, §19, §20, §24

[8] = system: Acinetobacter baumannii ARLG-1791 OXA-23; test: MIC test of compounds in combination with antibiotics, Acinetobacter baumannii ARLG-1791; conditions: Acinetobacter baumannii, ARLG1791OXA23
Procedure: as §15, §16, §17, §18, §19, §20

[9] = system: Acinetobacter baumannii WX-AB013; test: MIC test of compounds in combination with antibiotics, Acinetobacter baumannii WX-AB013; conditions: Acinetobacter baumannii, WXAB013
Procedure: as §15, §16, §17, §18, §19, §20

[10] = system: Klebsiella pneumoniae ARLG 1196; test: MIC test of compounds in combination with antibiotics, Klebsiella pneumoniae ARLG 1196; conditions: Klebsiella pneumoniae, ARLG1196
[11] = biological target: T1, CTX-M-15 (Escherichia coli, UniProt Q9EXV5); test: Enzyme activity test (FC5 fluorescent substrate), CTX-M-15; format: biochemical; conditions: enzyme 45 pM, substrate FC5 50 μM
T1 construct: purchased GenScript Biotech Co., Ltd
Procedure: (§1) Compound stock solution: the compound was prepared as a 50 mM DMSO stock solution. […] After aliquoting, the compound stock solutions were stored at −20° C.
(§2) Preparation and storage of antibiotic substrate stock solution: antibiotic fluorescent substrate FC5 was synthesized internally and prepared as a 2 mM stock solution, which was stored at −20° C. after aliquoting.
(§3) Storage of β-lactamases: each […] was synthesized by GenScript Biotech Co., Ltd., and stored at −80° C. after aliquoting to avoid repeated freezing and thawing.
(§4) Preparation of enzyme activity reaction buffer: SBL buffer: PBS pH 7.4, 0.01% (v/v) Triton X-100; MBL buffer: 50 Mm HEPES in PBS pH 7.2, 1 μM ZnSO4, 1 μg/mL BSA, 0.010% v/v Triton X-100
(§5) a) The compound to be tested and buffer were taken out and warmed to room temperature.
(§6) b) Each compound was diluted with DMSO and buffer to the initial experimental concentration (Table 2), and then the compound was diluted 3-fold for a total of 10 concentrations.
(§7) c) Diluted compounds were added to wells 1 to 20 of a 384-well black plate at 2 replicate wells per concentration, 5 μL per well. 5 µL of DMSO was added to wells 21 to 24.
(§8) d) Each enzyme was diluted to the experimental concentration (Table 2) in SBL and MBL buffers, and finally 35 μL/well was added, with a total of 22 wells. 35 μL buffer was added to wells 23 to 24. Wells 21 to well 22 served as the maximum test values (Max), while wells 23 to 24 were designated as the minimum test values (Min).
(§9) e) The 384-well plate was centrifuged quickly and incubated for 10 minutes at room temperature.
(§10) f) The antibiotic substrate FC5 was diluted in buffer to the experimental concentration of each enzyme (Table 2).
(§11) g) The incubated 384-well plate was taken out and FC-5 was added to wells […]. The 384-well plate was centrifuged rapidly and promptly transferred to a microplate reader for reading.
(§12) h) The fluorescence intensity was measured at 355 nm excitation light/460 nm emission light in the microplate reader, and the fluorescence intensity was measured every three minutes for a total of 10 measurements.
(§13) Initial velocity of enzyme reaction V: Subtract the background reading (Min wells) without enzyme from each fluorescence intensity reading, and then perform on a linear regression analysis on each compound concentration group. The slope is the initial velocity of enzyme reaction (V) at each compound concentration.
(§14) Dose-effect curve and IC50 calculation of compounds: The initial velocity of enzyme reaction under the effect of each concentration of compounds was subjected to nonlinear regression fitting. The IC50 (half-maximal inhibitory concentration) of each compound was calculated using the formula […] (Vi: the initial velocity of enzyme reaction at each compound concentration; V0: initial velocity of enzyme reaction without the compound (Max wells). The software used was Graphpad prism 8.

[12] = biological target: Ampc (UniProt P24735); test: Enzyme activity test (FC5 fluorescent substrate), AmpC; format: biochemical; conditions: enzyme 25 pM, substrate FC5 15 μM
Procedure: as §1, §2, §3, §4, §5, §6, §7, §8, §9, §10, §11, §12, §13, §14

[13] = biological target: T2, NDM-1 (Klebsiella pneumoniae, UniProt C7C422); test: Enzyme activity test (FC5 fluorescent substrate), NDM-1; format: biochemical; conditions: enzyme 6 pM, substrate FC5 15 μM, MBL buffer
T2 construct: purchased GenScript Biotech Co., Ltd
Procedure: as §1, §2, §3, §4, §5, §6, §7, §8, §9, §10, §11, §12, §13, §14

[14] = biological target: NDM-5 (Klebsiella pneumoniae, UniProt C7C422, M154L/V88L); test: Enzyme activity test (FC5 fluorescent substrate), NDM-5; format: biochemical
Procedure: as §1, §2, §3, §4, §5, §6, §7, §8
e) The 384-well plate was centrifuged quickly and incubated for 10 minutes at room temperature. […]
as §11, §12
Initial velocity of enzyme reaction V: Subtract the background reading (Min wells) without enzyme from each fluorescence intensity reading, and then perform on a linear regression analysis on each compound concentration group. […]
as §14

[15] = biological target: T3, OXA-48 (Klebsiella pneumoniae, UniProt Q6XEC0); test: Enzyme activity test (FC5 fluorescent substrate), OXA-48; format: biochemical; conditions: enzyme 650 pM, substrate FC5 125 μM
T3 construct: purchased GenScript Biotech Co., Ltd
Procedure: as §1, §2, §3, §4, §5, §6, §7, §8, §9, §10, §11, §12, §13, §14

[16] = biological target: T4, IMP-1 (Serratia marcescens, UniProt P52699); test: Enzyme activity test (FC5 fluorescent substrate), IMP-1; format: biochemical; conditions: enzyme 20 pM, substrate FC5 15 μM
T4 construct: purchased GenScript Biotech Co., Ltd
Procedure: as §1, §2, §3, §4, §5, §6, §7, §8, §9, §10, §11, §12, §13, §14

[17] = biological target: T5, OXA-10 (Pseudomonas aeruginosa, UniProt P14489); test: Enzyme activity test (FC5 fluorescent substrate), OXA-10; format: biochemical; conditions: enzyme 350 pM, substrate FC5 50 μM
T5 construct: purchased GenScript Biotech Co., Ltd
Procedure: as §1, §2, §3, §4, §5, §6, §7, §8, §9, §10, §11, §12, §13, §14

[18] = biological target: T6, OXA-23 (Acinetobacter baumannii, UniProt Q9L4P2); test: Enzyme activity test (FC5 fluorescent substrate), OXA-23; format: biochemical; conditions: enzyme 650 pM, substrate FC5 50 μM
T6 construct: purchased GenScript Biotech Co., Ltd
Procedure: as §1, §2, §3, §4, §5, §6, §7, §8, §9, §10, §11, §12, §13, §14

[19] = biological target: T7, VIM-1 (Pseudomonas aeruginosa, UniProt A0A0F7KYQ8); test: Enzyme activity test (FC5 fluorescent substrate), VIM-1; format: biochemical; conditions: enzyme 70 pM, substrate FC5 10 μM
T7 construct: purchased GenScript Biotech Co., Ltd
Procedure: as §1, §2, §3, §4, §5, §6, §7, §8, §9, §10, §11, §12, §13, §14

[20] = biological target: T8, KPC-2 (Klebsiella pneumoniae, UniProt Q9F663); test: Enzyme activity test (FC5 fluorescent substrate), KPC-2; format: biochemical; conditions: enzyme 45 pM, substrate FC5 25 μM
T8 construct: purchased GenScript Biotech Co., Ltd
Procedure: as §1, §2, §3, §4, §5, §6, §7, §8, §9, §10, §11, §12, §13, §14

[21] = biological target: T9, VIM-2 (Escherichia coli, UniProt Q5U7L7); test: Enzyme activity test (FC5 fluorescent substrate), VIM-2; format: biochemical; conditions: enzyme 25 pM, substrate FC5 20 μM
T9 construct: purchased GenScript Biotech Co., Ltd
Procedure: as §1, §2, §3, §4, §5, §6, §7, §8, §9, §10, §11, §12, §13, §14

T6 sequence (Q9L4P2 18-273): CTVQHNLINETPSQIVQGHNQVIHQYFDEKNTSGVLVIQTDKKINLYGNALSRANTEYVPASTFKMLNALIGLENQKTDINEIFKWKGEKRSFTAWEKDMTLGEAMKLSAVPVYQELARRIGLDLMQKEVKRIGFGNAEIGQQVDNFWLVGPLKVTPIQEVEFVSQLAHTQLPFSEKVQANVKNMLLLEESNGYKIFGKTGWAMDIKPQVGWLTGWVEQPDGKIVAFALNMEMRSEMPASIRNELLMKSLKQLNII
T4 sequence (P52699 19-246 limits assumed): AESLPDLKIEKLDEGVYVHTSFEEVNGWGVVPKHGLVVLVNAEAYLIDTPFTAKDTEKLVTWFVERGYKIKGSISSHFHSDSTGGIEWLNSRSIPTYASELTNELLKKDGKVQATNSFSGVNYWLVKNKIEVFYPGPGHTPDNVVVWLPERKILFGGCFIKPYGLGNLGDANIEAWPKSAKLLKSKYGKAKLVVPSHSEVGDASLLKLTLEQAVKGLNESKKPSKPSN
T2 sequence (C7C422 29-270 limits assumed): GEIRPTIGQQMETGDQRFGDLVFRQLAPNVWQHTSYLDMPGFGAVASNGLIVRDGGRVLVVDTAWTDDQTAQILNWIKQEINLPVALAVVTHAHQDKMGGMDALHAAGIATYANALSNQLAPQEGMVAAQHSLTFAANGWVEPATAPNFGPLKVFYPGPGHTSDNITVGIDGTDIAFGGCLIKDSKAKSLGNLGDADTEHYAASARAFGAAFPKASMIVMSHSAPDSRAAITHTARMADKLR
T1 sequence (Q9EXV5 entry or part of it): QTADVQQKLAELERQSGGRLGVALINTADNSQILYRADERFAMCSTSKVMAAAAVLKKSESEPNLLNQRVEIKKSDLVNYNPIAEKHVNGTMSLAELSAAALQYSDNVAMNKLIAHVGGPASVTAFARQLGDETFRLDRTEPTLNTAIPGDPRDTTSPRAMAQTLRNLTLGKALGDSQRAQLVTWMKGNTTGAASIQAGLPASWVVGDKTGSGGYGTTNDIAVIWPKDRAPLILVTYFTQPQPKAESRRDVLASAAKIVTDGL
T5 sequence (P14489 20-266): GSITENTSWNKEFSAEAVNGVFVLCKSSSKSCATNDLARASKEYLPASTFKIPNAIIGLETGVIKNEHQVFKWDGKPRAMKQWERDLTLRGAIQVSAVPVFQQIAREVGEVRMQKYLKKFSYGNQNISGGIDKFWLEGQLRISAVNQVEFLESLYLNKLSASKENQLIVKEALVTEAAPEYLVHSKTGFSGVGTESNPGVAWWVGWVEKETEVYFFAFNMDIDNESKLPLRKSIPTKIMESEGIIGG
Sequence of NDM-5 (C7C422 29-270 V88L/M154L): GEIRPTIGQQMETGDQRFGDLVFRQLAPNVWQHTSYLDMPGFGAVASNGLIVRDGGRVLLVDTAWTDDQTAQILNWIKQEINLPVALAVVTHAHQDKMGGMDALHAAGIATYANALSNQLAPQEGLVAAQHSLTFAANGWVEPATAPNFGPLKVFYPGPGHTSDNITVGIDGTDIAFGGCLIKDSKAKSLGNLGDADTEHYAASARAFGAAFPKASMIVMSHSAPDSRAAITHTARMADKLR
T3 sequence (Q6XEC0 23-265 limits assumed): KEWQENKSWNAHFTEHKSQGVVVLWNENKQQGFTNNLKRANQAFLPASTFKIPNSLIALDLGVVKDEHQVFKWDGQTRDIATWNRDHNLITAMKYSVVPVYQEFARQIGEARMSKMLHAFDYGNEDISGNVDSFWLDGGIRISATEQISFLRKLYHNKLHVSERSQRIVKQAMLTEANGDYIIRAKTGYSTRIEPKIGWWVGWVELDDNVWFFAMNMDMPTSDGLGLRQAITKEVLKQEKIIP
T8 sequence (Q9F663 25-293 limits assumed): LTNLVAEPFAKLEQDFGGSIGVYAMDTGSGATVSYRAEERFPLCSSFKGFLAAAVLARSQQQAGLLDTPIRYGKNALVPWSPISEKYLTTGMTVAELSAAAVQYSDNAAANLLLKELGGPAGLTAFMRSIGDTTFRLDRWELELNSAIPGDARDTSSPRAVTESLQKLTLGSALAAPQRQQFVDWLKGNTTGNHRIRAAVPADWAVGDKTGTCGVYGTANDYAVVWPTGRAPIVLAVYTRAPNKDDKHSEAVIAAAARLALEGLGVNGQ

Row | SMILES | MIC [1] | MIC [2] | MIC [3] | MIC [4] | MIC [5] | MIC [6] | MIC [7] | MIC [8] | MIC [9] | MIC [10] | also measured
1 | C[C@@H](O)[C@H]1C(=O)N2C(C(=O)[O-])=C(SC3Cn4cnc[n+]4C3)[C@H](C)[C@H]12 (stereo partly shown) [Biapenem, biapenem] | 32 µg/mL | 32 µg/mL | 4 µg/mL | 32 µg/mL | 32 µg/mL | 16 µg/mL | 32 µg/mL | 16 µg/mL | 64 µg/mL | 8 µg/mL | –
2 | CO/N=C(\C(=O)N[C@@H]1C(=O)N2C(C(=O)[O-])=C(C[N+]3(C)CCCC3)CS[C@H]12)c1csc(N)n1 [Cefepime] | 128 µg/mL | 64 µg/mL | > 128 µg/mL | 128 µg/mL | 128 µg/mL | > 64 µg/mL | > 128 µg/mL | 128 µg/mL | 32 µg/mL | > 64 µg/mL | –
3 | CSc1ccc2c(c1C(=O)O)OB(O)[C@@H]1C[C@H]21 [Compound 1] | – | – | – | – | – | – | – | – | – | – | IC50 [11]: 1.3 nM; IC50 [12]: 17.2 nM; IC50 [13]: 13.1 nM; IC50 [14]: 15.3 nM; IC50 [15]: 0.2 nM; IC50 [16]: < 5.1 nM; IC50 [17]: 10 nM; IC50 [18]: 0.8 nM; IC50 [19]: 1.5 nM; IC50 [20]: 1.2 nM; IC50 [21]: 0.1 nM
